The values below come from US11427553B2, “Dihydrooxadiazinones” (Bayer Aktiengesellschaft, priority 2017, dated 2022).

One test deals with HeLa cells. The test is described as follows: Assay 1 cell proliferation measurement (CTG, 72 h), HeLa. As to conditions: Homo sapiens, HeLa; Assay 1, 72 h, Cell Titer Glo; read-out: HeLa IC50 [nM] (Cervical cancer). In kind it is cell-based, human. How it is done: Cell Proliferation Measurement
The antiproliferative activity of the compounds of the general formula (I) was examined in vitro in human cancer cells. For this purpose, the appropriate number of cells (Hela: 800; SK-MEL-3: 1000; A549: 800) were plated in 384-well plates with appropriate growth medium ((A549: DMEM/Ham's F12 (Biochrom; #FG 4815 with stabile Glutamine), FCS 10% final (Biochrom; #S 0415); Hela: DMEM/Ham's F12 (Biochrom; #FG 4815 with stabile Glutamine), FCS 10% final (Biochrom; #S 0415); SK-MEL-3: McCoy's 5A (Biochrom; #F 1015), FCS 10% final (Biochrom; #S 0415), L-Alanyl-L-Glutamine final: 2 mM, (Biochrom; #K 0302)) and incubated at 37° C. overnight. After 24 h, cells on one plate (0 h plate) were treated with 30 μl/cavity of CTG solution (Promega Cell Titer Glo (catalogue #G755B and G756B)) and incubated at room temperature for 10 min, and luminescence was measured by means of a VICTOR V (Perkin Elmer), in order to determine cell viability on commencement of treatment. The cells on the test plate were treated with the compounds of the general formula (I) as and incubated at 37° C. for 72 h. The compounds were added to the cells by means of an HP D300 digital dispenser in a 10-step 2.5-fold dilution series generally starting at a maximum final drug concentration of 100 nM. As control, the cells were treated with vehicle (DMSO at 0.3% final concentration). After 72 h, the cells were treated with 30 μl/cavity of CTG solution (Promega Cell Titer Glo (catalogue #G755B and G756B)) and incubated at room temperature for 10 min. and luminescence was measured by means of a VICTOR V (Perkin Elmer), in order to determine cell viability at the end of treatment. The percentage effect on cell growth and the IC50 derived therefrom were determined for each test substance using the values from the 0 h plate […] and the DMSO control […]. The IC50 values were calculated using a 4-parameter fit.

The next test concerns the target human full length PDE3A (Homo sapiens (Human), UniProt Q14432). The test is described as follows: Assay 4 PDE3A enzyme inhibition (3H-cAMP SPA). In kind it is biochemical. As to conditions: Sf9 cell extract. How it is done:
Assay 4 Method for PDE3A Enzyme Inhibition
(§1) The commercially available 3H-cAMP Scintillation Proximity Assay (SPA, Perkin Elmer) system was used for enzyme inhibition studies. For the determination of the in vitro effect of example compounds on the PDE3A reactions 2 μl of the respective example compound solution in DMSO (serial dilutions) were placed in wells of microtiter plates (Isoplate-96/200W; Perkin Elmer). 50 μl of a dilution of PDE3A cell extract from Sf9 cells overexpressing human full length PDE3A (SB Drug Discovery, UK) in buffer A (50 mM Tris/HCl pH 7.5, 8.3 mM MgCl2, 1.7 mM EDTA, 0.2% BSA) was added. The dilution of the PDE3A cell extract was chosen such that the reaction kinetics was linear and less than 70% of the substrate was consumed (typical dilution 1:5000). The reaction was started by addition of 50 μl (0.025 μCi) of 1:2000 in buffer A w/o BSA diluted substrate [8-3H]adenosine 3′, 5′-cyclic phosphate (1 μCi/μl; Perkin Elmer). After incubation at room temperature for 60 min, the reaction was stopped by addition of 25 μl of a suspension containing 18 mg/ml yttrium scintillation proximity beads (Perkin Elmer) in water. The microtiter plates were sealed and measured in a Microbeta scintillation counter (PerkinElmer Wallac). IC50 values were determined from sigmoidal curves by plotting percentage PDE3A activity vs log compound concentration.

For a further test, the target named is human full length PDE3B (Homo sapiens (Human), UniProt Q13370). The experiment in a line: Assay 5 PDE3B enzyme inhibition (3H-cAMP SPA). Type of test: biochemical. Particulars: Sf9 cell extract. How it is done:
as §1, with “PDE3B” for “PDE3A”, “1:6000).” for “1:5000).”

Molecules are shown by their SMILES.

Chain of human full length PDE3B (Q13370 whole entry): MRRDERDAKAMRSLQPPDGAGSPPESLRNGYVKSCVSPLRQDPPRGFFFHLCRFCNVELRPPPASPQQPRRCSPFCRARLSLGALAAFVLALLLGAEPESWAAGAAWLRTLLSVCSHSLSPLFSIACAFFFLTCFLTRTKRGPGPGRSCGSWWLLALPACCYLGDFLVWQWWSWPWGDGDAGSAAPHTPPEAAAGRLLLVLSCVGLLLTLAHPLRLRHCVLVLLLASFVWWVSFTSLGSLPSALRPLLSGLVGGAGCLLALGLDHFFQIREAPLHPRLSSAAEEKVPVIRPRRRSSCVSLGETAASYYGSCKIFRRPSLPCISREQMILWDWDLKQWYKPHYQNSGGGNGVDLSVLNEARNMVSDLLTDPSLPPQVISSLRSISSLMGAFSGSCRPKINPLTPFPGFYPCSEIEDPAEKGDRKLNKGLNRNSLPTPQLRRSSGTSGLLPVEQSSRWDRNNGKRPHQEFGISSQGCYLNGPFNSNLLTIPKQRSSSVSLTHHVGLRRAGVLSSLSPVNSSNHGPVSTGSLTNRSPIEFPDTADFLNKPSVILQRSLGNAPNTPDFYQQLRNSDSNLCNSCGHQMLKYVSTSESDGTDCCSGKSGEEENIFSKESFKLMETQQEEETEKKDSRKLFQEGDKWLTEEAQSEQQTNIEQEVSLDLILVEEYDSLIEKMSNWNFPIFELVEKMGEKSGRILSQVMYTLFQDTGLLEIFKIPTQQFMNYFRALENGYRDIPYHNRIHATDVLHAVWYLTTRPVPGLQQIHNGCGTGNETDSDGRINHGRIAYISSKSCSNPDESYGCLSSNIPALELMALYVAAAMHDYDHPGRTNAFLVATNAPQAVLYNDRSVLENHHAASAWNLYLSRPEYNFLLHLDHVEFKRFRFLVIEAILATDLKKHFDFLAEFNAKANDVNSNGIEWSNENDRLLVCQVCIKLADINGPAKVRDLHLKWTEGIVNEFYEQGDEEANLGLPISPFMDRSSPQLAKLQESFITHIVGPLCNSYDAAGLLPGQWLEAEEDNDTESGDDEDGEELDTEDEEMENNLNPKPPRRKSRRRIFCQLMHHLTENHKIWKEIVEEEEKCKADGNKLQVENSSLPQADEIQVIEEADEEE
Chain of human full length PDE3A (Q14432 whole entry): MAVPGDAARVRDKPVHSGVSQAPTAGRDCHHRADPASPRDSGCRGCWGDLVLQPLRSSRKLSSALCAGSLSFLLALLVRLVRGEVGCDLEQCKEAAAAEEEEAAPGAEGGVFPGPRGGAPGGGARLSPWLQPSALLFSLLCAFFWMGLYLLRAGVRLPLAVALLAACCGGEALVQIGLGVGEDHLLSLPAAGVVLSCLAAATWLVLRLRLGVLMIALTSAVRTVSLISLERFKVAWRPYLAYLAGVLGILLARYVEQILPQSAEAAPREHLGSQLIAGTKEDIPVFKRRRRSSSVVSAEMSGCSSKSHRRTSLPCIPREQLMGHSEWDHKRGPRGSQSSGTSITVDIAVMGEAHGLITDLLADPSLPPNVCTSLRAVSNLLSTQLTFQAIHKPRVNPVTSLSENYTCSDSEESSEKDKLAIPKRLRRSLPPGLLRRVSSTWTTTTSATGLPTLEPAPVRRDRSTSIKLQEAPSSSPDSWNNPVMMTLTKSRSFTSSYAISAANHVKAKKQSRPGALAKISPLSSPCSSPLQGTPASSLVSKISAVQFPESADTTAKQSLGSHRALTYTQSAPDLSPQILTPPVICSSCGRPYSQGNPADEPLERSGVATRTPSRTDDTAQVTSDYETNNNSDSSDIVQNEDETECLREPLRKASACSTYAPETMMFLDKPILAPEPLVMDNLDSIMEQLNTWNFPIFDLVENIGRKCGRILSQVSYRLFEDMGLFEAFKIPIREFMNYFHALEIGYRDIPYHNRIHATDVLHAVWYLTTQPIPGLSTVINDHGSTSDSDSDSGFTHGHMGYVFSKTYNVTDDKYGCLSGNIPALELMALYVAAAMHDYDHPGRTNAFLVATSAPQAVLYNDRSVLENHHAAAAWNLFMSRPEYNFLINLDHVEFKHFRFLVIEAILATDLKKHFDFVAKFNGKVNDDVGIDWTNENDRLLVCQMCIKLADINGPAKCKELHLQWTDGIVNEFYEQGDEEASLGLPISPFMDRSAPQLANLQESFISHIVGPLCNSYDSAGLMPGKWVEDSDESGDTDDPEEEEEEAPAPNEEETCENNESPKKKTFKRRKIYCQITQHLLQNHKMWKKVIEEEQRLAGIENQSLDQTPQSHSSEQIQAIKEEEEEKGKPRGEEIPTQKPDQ

Take `O=C1NN=C(c2ccc(N3CCCC(O)C3)c(C(F)(F)F)c2)CO1` (racemic) [Example 229, (rac)-5-[4-(3-hydroxypiperidin-1-yl)-3-(trifluoromethyl)phenyl]-3,6-dihydro-2H-1,3,4-oxadiazin-2-one]: the IC50 was found to be 1 nM in the test with HeLa cells, 82 nM against human full length PDE3A and 67 nM against human full length PDE3B.

On to `NC(=O)C1CCCN(c2ccc(C3=NNC(=O)OC3)cc2C(F)(F)F)C1` (racemic) [Example 230, (rac)-1-[4-(2-Oxo-3,6-dihydro-2H-1,3,4-oxadiazin-5-yl)-2-(trifluoromethyl)phenyl]piperidine-3-carboxamide], for which the IC50 in the test with HeLa cells was determined as 7 nM; at human full length PDE3A, 58 nM; against human full length PDE3B, 100 nM.

On to `COCC(O)CNc1ccc(C2=NNC(=O)OC2)cc1C(F)(F)F` (racemic) [Example 235, (rac)-5-{4-[(2-Hydroxy-3-methoxypropyl)amino]-3-(trifluoromethyl)phenyl}-3,6-dihydro-2H-1,3,4-oxadiazin-2-one], for which the results for the IC50 in the test on HeLa cells, against human full length PDE3A and at human full length PDE3B were 4 nM, 170 nM and 180 nM, respectively.

On to `CCOC(C)CNc1ccc(C2=NNC(=O)OC2)cc1C(F)(F)F` (racemic) [Example 241, (rac)-5-{4-[(2-Ethoxypropyl)amino]-3-(trifluoromethyl)phenyl}-3,6-dihydro-2H-1,3,4-oxadiazin-2-one], for which the half-maximal inhibitory concentration (IC50) with HeLa cells is 6 nM; at human full length PDE3A, 66 nM; on human full length PDE3B, 130 nM.

Turning to `COC(C)CNc1ccc(C2=NNC(=O)OC2)cc1C(F)(F)F` (racemic) [Example 242, (rac)-5-{4-[(2-Methoxypropyl)amino]-3-(trifluoromethyl)phenyl}-3,6-dihydro-2H-1,3,4-oxadiazin-2-one], the IC50 is 2 nM in the test on HeLa cells, 92 nM on human full length PDE3A and 130 nM against human full length PDE3B.

With `O=C1NN=C(c2ccc(NCC3CCOC3)c(C(F)(F)F)c2)CO1` (racemic) [Example 245, (rac)-5-[4-{[(Oxolan-3-yl)methyl]amino}-3-(trifluoromethyl)phenyl]-3,6-dihydro-2H-1,3,4-oxadiazin-2-one], the figures for the IC50 in the test on HeLa cells, against human full length PDE3A and at human full length PDE3B were 3 nM, 75 nM and 100 nM, respectively.

For the molecule `O=C1CCC(CNc2ccc(C3=NNC(=O)OC3)cc2C(F)(F)F)CN1` (racemic) [Example 247, (rac)-5-[4-{[(6-Oxopiperidin-3-yl)methyl]amino}-3-(trifluoromethyl)phenyl]-3,6-dihydro-2H-1,3,4-oxadiazin-2-one], the IC50 in the test with HeLa cells stood at 10 nM; on human full length PDE3A, 65 nM; against human full length PDE3B, 180 nM.

Consider `CC1(C)CC1CNc1ccc(C2=NNC(=O)OC2)cc1C(F)(F)F` (racemic) [Example 248, (rac)-5-[4-{[(2,2-Dimethylcyclopropyl)methyl]amino}-3-(trifluoromethyl)phenyl]-3,6-dihydro-2H-1,3,4-oxadiazin-2-one], for which the IC50 in the test on HeLa cells was 6 nM; against human full length PDE3A, 61 nM; against human full length PDE3B, 140 nM.

In the case of `O=C1NN=C(c2ccc(N3CCC(O)CC3)c(C(F)(F)F)c2)CO1` [Example 227, 5-[4-(4-Hydroxypiperidin-1-yl)-3-(trifluoromethyl)phenyl]-3,6-dihydro-2H-1,3,4-oxadiazin-2-one], the IC50 in the test on HeLa cells was 1 nM; on human full length PDE3A, 13 nM; against human full length PDE3B, 9 nM.

In the case of `CC[C@@H](CO)Nc1ccc(C2=NNC(=O)OC2)cc1C(F)(F)F` [Example 228, 5-[4-{[(2S)-1-Hydroxybutan-2-yl]amino}-3-(trifluoromethyl)phenyl]-3,6-dihydro-2H-1,3,4-oxadiazin-2-one], the 50% inhibitory concentration (IC50) was found to be 7 nM with HeLa cells, 400 nM against human full length PDE3A and 920 nM against human full length PDE3B.

`CC(C)(CO)CNc1ccc(C2=NNC(=O)OC2)cc1C(F)(F)F` [Example 231, 5-{4-[(3-Hydroxy-2,2-dimethylpropyl)amino]-3-(trifluoromethyl)phenyl}-3,6-dihydro-2H-1,3,4-oxadiazin-2-one]: the IC50 in the test on HeLa cells was found to be 2 nM; on human full length PDE3A, 100 nM; against human full length PDE3B, 110 nM.

`O=C1NN=C(c2ccc(N[C@@H]3C[C@@H]4CC[C@@H]3C4)c(C(F)(F)F)c2)CO1` [Example 233, 5-[4-{[(1R,2R,4R)-Bicyclo[2.2.1]heptan-2-yl]amino}-3-(trifluoromethyl)phenyl]-3,6-dihydro-2H-1,3,4-oxadiazin-2-one]: the IC50 with HeLa cells is 8 nM; against human full length PDE3A it was 86 nM; at human full length PDE3B it was 250 nM.

As for `O=C1NN=C(c2ccc(N3CC[C@H](O)C3)c(C(F)(F)F)c2)CO1` [Example 234, 5-{4-[(3S)-3-Hydroxypyrrolidin-1-yl]-3-(trifluoromethyl)phenyl}-3,6-dihydro-2H-1,3,4-oxadiazin-2-one], the values for the IC50 in the test with HeLa cells, against human full length PDE3A and on human full length PDE3B were 2 nM, 78 nM and 73 nM, respectively.

Take `O=C1NN=C(c2ccc(NCCN3CCNC3=O)c(C(F)(F)F)c2)CO1` [Example 313, 5-[4-{[2-(2-oxoimidazolidin-1-yl)ethyl]amino}-3-(trifluoromethyl)phenyl]-3,6-dihydro-2H-1,3,4-oxadiazin-2-one]: in the test with HeLa cells, the IC50 is > 100 nM.

With `CCN(CCC#N)c1ccc(C2=NNC(=O)OC2)cc1C(F)(F)F` [Example 314, 3-{ethyl[4-(2-oxo-3,6-dihydro-2H-1,3,4-oxadiazin-5-yl)-2-(trifluoromethyl)phenyl]amino}propanenitrile], the IC50 in the test with HeLa cells is > 100 nM.

For the molecule `CCN1CCCC1CNc1ccc(C2=NNC(=O)OC2)cc1C(F)(F)F` (stereo not drawn) [Example 315, 5-[4-{[(1-ethylpyrrolidin-2-yl)methyl]amino}-3-(trifluoromethyl)phenyl]-3,6-dihydro-2H-1,3,4-oxadiazin-2-one], the IC50 in the test with HeLa cells is > 100 nM.

For the molecule `CC(=O)NCCNc1ccc(C2=NNC(=O)OC2)cc1C(F)(F)F` [Example 316, N-{2-[4-(2-oxo-3,6-dihydro-2H-1,3,4-oxadiazin-5-yl)-2-(trifluoromethyl)anilino]ethyl}acetamide], the IC50 with HeLa cells was > 100 nM.

Consider `O=C1NN=C(c2ccc(NCCN3CCCCC3)c(C(F)(F)F)c2)CO1` [Example 317, 5-[4-{[2-(piperidin-1-yl)ethyl]amino}-3-(trifluoromethyl)phenyl]-3,6-dihydro-2H-1,3,4-oxadiazin-2-one], for which, in the test on HeLa cells, the IC50 is > 100 nM.

Regarding `CN1CCCC1CCNc1ccc(C2=NNC(=O)OC2)cc1C(F)(F)F` (stereo not drawn) [Example 318, 5-[4-{[2-(1-methylpyrrolidin-2-yl)ethyl]amino}-3-(trifluoromethyl)phenyl]-3,6-dihydro-2H-1,3,4-oxadiazin-2-one], the IC50 with HeLa cells was > 100 nM.
